Data as given in patent US5658943A, “Phenylalanine derivatives as endothelin antagonists” (Warner-Lambert Company, priority 1995, dated 1997).
pIC50: −log10 of the molar value. Where a SMILES comes first, the peptide text is derived from it. [ ]: non-standard residue; d: D form.

What was measured:
recombinant human ETB R = biological target: T1, recombinant human ETB R (Homo sapiens, UniProt P24530); test: [125I]-ET-1 radioligand binding, CHO-K1 cells expressing recombinant human ETB R (HERBA-B); conditions: [125I]-ET-1 (40 pM), 2 hours at 37° C.
T1 construct: expressed in transfected cells; host or cells: CHO-K1 cells (membranes)
T1 sequence (P24530 27-442): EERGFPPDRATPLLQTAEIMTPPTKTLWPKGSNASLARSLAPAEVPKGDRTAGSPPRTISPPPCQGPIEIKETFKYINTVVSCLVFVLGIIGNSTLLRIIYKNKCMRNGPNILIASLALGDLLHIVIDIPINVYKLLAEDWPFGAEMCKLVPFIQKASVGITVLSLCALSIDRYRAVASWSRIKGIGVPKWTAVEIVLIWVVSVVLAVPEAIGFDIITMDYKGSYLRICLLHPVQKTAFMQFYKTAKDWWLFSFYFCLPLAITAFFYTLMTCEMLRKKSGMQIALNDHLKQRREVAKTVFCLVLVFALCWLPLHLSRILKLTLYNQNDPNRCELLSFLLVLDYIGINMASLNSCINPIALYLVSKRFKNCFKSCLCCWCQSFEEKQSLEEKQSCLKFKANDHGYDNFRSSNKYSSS

recombinant human ETA R = biological target: T2, recombinant human ETA R (Homo sapiens, UniProt P25101); test: [125I]-ET-1 radioligand binding, Ltk- cells expressing recombinant human ETA R (HERBA-A); conditions: [125I]-ET-1 (40 pM), 2 hours at 37° C.
T2 construct: expressed in transfected cells; host or cells: Ltk- cells (membranes)
T2 sequence (P25101 21-427): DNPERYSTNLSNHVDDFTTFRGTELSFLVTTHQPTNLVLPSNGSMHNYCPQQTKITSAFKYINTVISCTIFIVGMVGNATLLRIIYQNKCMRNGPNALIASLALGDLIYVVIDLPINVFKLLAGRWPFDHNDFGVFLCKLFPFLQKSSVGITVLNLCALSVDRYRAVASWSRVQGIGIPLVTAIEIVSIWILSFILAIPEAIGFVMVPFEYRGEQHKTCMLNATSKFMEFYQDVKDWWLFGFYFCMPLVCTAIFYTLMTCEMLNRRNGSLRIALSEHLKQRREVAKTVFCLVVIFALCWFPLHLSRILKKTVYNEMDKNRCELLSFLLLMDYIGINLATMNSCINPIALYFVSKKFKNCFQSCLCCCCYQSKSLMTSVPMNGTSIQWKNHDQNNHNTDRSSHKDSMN
Description: (§1) The compounds of Formula I are valuable antagonists of endothelin.
(§2) The following cultured cells were used in binding experiments: rabbit renal artery vascular smooth muscle cells (ERBA-A), Ltk-cells expressing recombinant human ETA R (HERBA-A), and CHO-K1 cells expressing recombinant human ETB R (HERBA-B).
(§3) Membranes were prepared from cultured cells by lysing cells in cold lysis buffer (5 mM HEPES, 2 mM EDTA, pH 7.4) and homogenizing with a Dounce "A" homogenizer. The homogenate was centrifuged at 30,000×g for 20 minutes at 4° C. Membrane pellets were suspended in cold buffer containing 20 mM Tris, 2 mM EDTA, 200 μM Pefabloc, 10 μM phosphoramidon, 10 μM leupeptin, 1 μM pepstatin at pH 7.4 and frozen at -80° C. until use. Membranes were thawed and homogenized with a Brinkmann Polytron then diluted in tissue buffer containing 20 mM Tris, 2 mM EDTA, 200 μM Pefabloc and 100 μM bacitracin (pH 7.4). Radioligand and competing ligands were prepared in binding buffer containing 20 mMTris, 2 mM EDTA, and 0.1% BSA.
(§4) Competing binding assays were initiatedby combining membranes, [125I]-ET-1 (40 pM) and the competing ligand in a final volume of 250 μL and incubating for 2 hours at 37° C. The assay was terminated by filtration over Whatman GF/B filters which were presoaked with 50 mM Tris, pH 7.4 containing 0.2% BSA and 100 μM bacitracin. Nonspecific binding was defined as binding in the presence of 100 nMET-1.

rat cerebellum (ETB) = test: inhibition of ET-1 stimulated arachidonic acid release (AAR-B); format: cell-based; conditions: ET-1 (0.3 nM) stimulated [3H]arachidonic acid release, 30 minutes
Excerpt: as §1

[1] = biological target: T3, rabbit renal artery vascular smooth muscle cells (ETA) (Oryctolagus cuniculus, UniProt A5A8K3); test: [125I]-ET-1 radioligand binding, rabbit renal artery vascular smooth muscle cells (ERBA-A); conditions: [125I]-ET-1 (40 pM), 2 hours at 37° C.
T3 construct: endogenous in cells; host or cells: cultured rabbit renal artery vascular smooth muscle cells (membranes)
T3 sequence (A5A8K3 21-427): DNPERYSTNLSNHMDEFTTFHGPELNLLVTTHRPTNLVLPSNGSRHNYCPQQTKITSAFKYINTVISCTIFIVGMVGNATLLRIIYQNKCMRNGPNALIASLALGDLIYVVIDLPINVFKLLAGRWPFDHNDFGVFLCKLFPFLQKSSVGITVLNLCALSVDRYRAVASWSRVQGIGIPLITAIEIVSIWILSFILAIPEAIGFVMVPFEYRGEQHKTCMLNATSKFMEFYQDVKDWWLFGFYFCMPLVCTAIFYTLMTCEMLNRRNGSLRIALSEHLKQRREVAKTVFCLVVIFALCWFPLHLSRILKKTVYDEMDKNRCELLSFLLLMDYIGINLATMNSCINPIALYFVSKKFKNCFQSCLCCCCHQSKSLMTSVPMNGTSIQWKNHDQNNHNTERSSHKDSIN
Description: as §1, §2, §3, §4

ETB = conditions: isolated, endothelium-intact porcine pulmonary arteries; cited from earlier work
ETA [2] = conditions: in vivo; cited from earlier work
ETA [3] = conditions: mouse model of endotoxic shock; cited from earlier work
ET receptor = conditions: allergic sheep; cited from earlier work
ETA /ETB receptor = conditions: in vivo; cited from earlier work
endothelin receptor [4] = conditions: rats; cited from earlier work
endothelin receptor [5] = conditions: rats; cited from earlier work; remark: listed apart in the source

Row | pIC50 (recombinant human ETB R) | pIC50 (recombinant human ETA R) | pIC50 [1] | Molecule | other results
1 | 5.70 | 5.47 | – | COc1cccc(CC(NC(=O)C(c2ccccc2)c2ccccc2)C(=O)O)c1OCc1ccccc1 (racemic) [Example 3, (R,S)-N-(Diphenylacetyl)-3-methoxy-2-(phenylmethoxy)-phenylalanine] | pIC50 (rat cerebellum (ETB)): 5.00
2 | 5.01 | – | 5.15 | COc1cccc(CC(NCC(c2ccccc2)c2ccccc2)C(=O)O)c1OCc1ccccc1 (racemic) [Example 16, (R,S)-3-(2-Benzyloxy-3-methoxyphenyl)-2-(2,2-diphenyl-ethylamino)propionic acid] | –
3 | 5.03 | 5.03 | – | COc1cccc(CC(NC(=O)C(c2ccccc2)c2ccccc2)C(=O)O)c1OCCCc1ccccc1 (racemic) [Example 7, (R,S)-Diphenylacetylamino-3-[3-methoxy-2-(3-phenyl-propoxy)phenyl]propionicacid] | –
4 | 5.66 | – | 4.64 | COc1cccc(CC(NC(=O)C(c2ccccc2)C2CCCC2)C(=O)O)c1OCc1ccccc1 (racemic) [Example 10, (R,S; R,S)-3-(2-Benzyloxy-3-methoxyphenyl)-2-(2-cyclopentyl-2-phenyl-acetylamino)propionic acid] | –
5 | 6.00 | 5.47 | 4.80 | COc1cccc(CC(NC(=O)C(c2ccccc2)c2ccccc2)C(=O)O)c1OCCc1ccccc1 (racemic) [Example 4, (R,S)-2-Diphenylacetylamino-3-[3-methoxy-2-(2-phenyl-ethoxy)phenyl]propionic acid] | pIC50 (rat cerebellum (ETB)): 5.21
6 | 5.17 | – | 4.89 | COc1cccc(CC(NC(=O)N(c2ccccc2)c2ccccc2)C(=O)O)c1OCc1ccccc1 (racemic) [Example 5, (R,S)-3-(2Benzyloxy-3-methoxyphenyl)-2-(3,3-diphenyl-ureido) propionic acid] | –

Further lines, the molecule ahead of its results:

Row | Molecule | pIC50 (recombinant human ETB R) | pIC50 (recombinant human ETA R) | pIC50 [1] | other results
7 | O=C(O)C(Cc1ccccc1OCc1ccccc1)NC(=O)C(c1ccccc1)c1ccccc1 (racemic) [Example 14, (R,S)-3-(2-Benzyloxyphenyl)-2-diphenylacetylamino-propionic acid] | 4.64 | – | < 4.60 | –
8 | COc1ccc(C(c2ccc3c(c2)OCO3)C(NC(=O)C(c2ccccc2)c2ccccc2)C(=O)O)cc1OCc1ccccc1 (racemic) [Example 23, (R,S: R,S)-3-Benzo[1,3]dioxol-5-yl-3-(3-benzyloxy-4-methoxyphenyl)-2-diphenyl-acetylaminopropionic acid] | 4.92 | 4.57 | – | –
9 | ET[1,3,11,15-Ala] | – | – | – | vasorelaxation (ETB): caused vasorelaxation
10 | COc1cccc(SC(c2cccc(OC)c2)C(NC(=O)C(c2ccccc2)c2ccccc2)C(=O)O)c1 (racemic) [Example 35, (R,S; R,S)-2-Diphenylacetylamino-3-(3-methoxyphenyl)-3-(3-methoxyphenyl-sulfanyl)propionic acid] | 5.52 | 5.74 | – | –
11 | COc1cccc(CC(NC(=O)C(c2ccccc2)c2ccccc2)C(=O)O)c1Oc1ccc([N+](=O)[O-])cc1 (racemic) [Example 8, (R,S)-2-Diphenylacetylamino-3-[3-method-2-(4-nitro-phenol)phenyl]propionicacid] | – | < 4.60 | 4.77 | –
12 | CC(C)C[C@@H]1NC(=O)[C@@H](C(C)C)NC(=O)[C@@H]2CCCN2C(=O)[C@@H](CC(=O)O)NC(=O)[C@@H](Cc2c[nH]c3ccccc23)NC1=O [BQ-123] (cyclo(L[dW][dD]P[dV])) | – | – | – | early cerebral vasospasm following subarachnoid hemorrhage (ETA [2]): prevent early cerebral vasospasm; survival rate (ETA [3]): significantly increased; ET-1 induced bronchoconstriction and tracheal smooth muscle contraction (ET receptor): block
13 | O=C(NC(C(=O)O)C(c1ccc2c(c1)OCO2)c1ccc2c(c1)OCO2)C(c1ccccc1)c1ccccc1 (centres unmarked) [Example 21, 3,3 -Bis-benzo[1,3]dioxol-5-yl-2-diphenylacetylamino-propionic acid] | 5.60 | 5.89 | – | –
14 | CC(C)c1ccc(S(=O)(=O)NC(C(=O)O)C(c2ccc3c(c2)OCO3)c2ccc3c(c2)OCO3)cc1 (racemic) [Example 40, (R,S)-3,3-Bis-benzo[1,3]dioxol-5-yl-2-(4-isopropyl-benzenesulfonylamino)-propionic acid] | 4.80 | 5.40 | – | –
15 | CCCOc1ccc2c(c1)[C@@H](c1ccc(OC)cc1OCC(=O)O)[C@H](C(=O)O)[C@H]2c1ccc2c(c1)OCO2 [SB 209670] | – | – | – | neointimal formation after angioplasty (ETA /ETB receptor): reduced neointimal formation
16 | COc1cccc(CC(NC(=O)C(Cc2cccc3ccccc23)Cc2cccc3ccccc23)C(=O)O)c1OCc1ccccc1 (racemic) [Example 9, (R,S)-3-(2-Benzyloxy-3-methoxyphenyl)-2-(3-naphthalen-1-yl-2-naphthalen-1-ylmethylpropionylamino)propionic acid] | 5.66 | – | < 4.60 | –
17 | COc1cccc(Oc2c(NS(=O)(=O)c3ccc(C(C)(C)C)cc3)ncnc2OCCO)c1 [RO 46-2005] | – | – | – | efficacy in model of subarachnoid hemorrhage (endothelin receptor [4]): effective; efficacy in model of acute renal ischemia (endothelin receptor [5]): effective
18 | O=C(NC(C(=O)O)C(c1ccc2c(c1)OCO2)c1ccc2c(c1)OCO2)c1ccc2c(c1)OCO2 (racemic) [Example 38, (R,S)-2-[(Benzo[1,3]dioxole-5-carbonyl)-amino]-3,3-bis-benzo [1,3]dioxol-5-yl-propionic acid] | 4.89 | 5.89 | – | –
